The nature of data set [1]: Perpetrator drug plasma Cmax in clinical interaction studies with metformin. Conditions: f u × C max. It is filed as in vivo, human.
For data set [2] the following is noted: read-out: [C max] mean steady-state total plasma concentration, cited from earlier work.
Data set [3] has as its target T1, multidrug and toxin extrusion protein (MATE) 1 (SLC47A1) (Homo sapiens, UniProt Q96FL8).
T1 sequence (Q96FL8 1-570): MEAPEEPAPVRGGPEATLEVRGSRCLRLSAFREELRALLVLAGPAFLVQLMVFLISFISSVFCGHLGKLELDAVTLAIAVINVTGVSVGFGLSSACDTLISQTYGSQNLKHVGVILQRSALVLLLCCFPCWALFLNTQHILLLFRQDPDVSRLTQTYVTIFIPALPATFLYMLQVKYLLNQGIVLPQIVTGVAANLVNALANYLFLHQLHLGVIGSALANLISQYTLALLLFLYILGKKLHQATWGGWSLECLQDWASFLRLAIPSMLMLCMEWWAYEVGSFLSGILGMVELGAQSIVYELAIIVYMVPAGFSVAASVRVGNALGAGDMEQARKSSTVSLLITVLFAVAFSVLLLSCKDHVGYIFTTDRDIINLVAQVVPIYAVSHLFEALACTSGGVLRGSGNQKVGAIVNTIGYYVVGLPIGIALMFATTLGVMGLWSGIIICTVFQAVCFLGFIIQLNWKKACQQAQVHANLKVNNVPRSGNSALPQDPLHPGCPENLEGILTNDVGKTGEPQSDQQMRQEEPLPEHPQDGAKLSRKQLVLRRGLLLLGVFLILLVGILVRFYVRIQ
Also on record: method as in Kusuhara et al. 2011; Ito et al. 2012; Müller et al. 2015. The settings on record: ref Kusuhara et al. 2011; Ito et al. 2012; Müller et al. 2015; cited from earlier work.

In a further data set the test system is Caco‐2 cell monolayers. Nature of the data set: Metformin apparent permeability across polarised Caco-2 cell monolayers with and without inhibitors. It is filed as in vitro ADME. The settings on record: therapeutic intestinal concentrations of inhibitor. The method, then:
(§1) Caco‐2 cells between passage numbers 50–60 were used for experiments. Cells were seeded in cell culture medium (consisting of DMEM supplemented with 10% (w/v) fetal bovine serum, 2 mmol/L L‐glutamine, 1% (v/v) nonessential amino acids, 50 U/mL penicillin and 50 μg/mL streptomycin) onto Millicell‐96 multiwell insert plates at 1 × 10^5 cells/cm^2 and cultured at 37°C in an atmosphere of 5% CO2 with a relative humidity of 95 %. Media was changed every two or three days and plates were used for transport studies on day 20 postseeding. Cell monolayers were washed twice with prewarmed (37°C) transport buffer (HBSS containing 25 mmol/L HEPES and 4.45 mmol/L glucose, pH 7.4) for basolateral compartments and prewarmed MES‐transport buffer (HBSS containing 10 mmol/L MES and 4.45 mmol/L glucose, pH 6.5) for apical compartments. […] Transport buffer or MES‐transport buffer containing DMSO or test inhibitor was added to the corresponding receiver compartments. Donor and receiver solutions contained a final DMSO concentration of ≤1 % (v/v). […] The amount of lucifer yellow appearing in the receiver compartments was quantified on a fluorescence plate reader and used to calculate permeation across the cell monolayer.

Data set [4] deals with T2, human organic cation transporter (OCT) 1 (SLC22A1) (Homo sapiens, UniProt O15245).
T2 sequence (O15245 1-554): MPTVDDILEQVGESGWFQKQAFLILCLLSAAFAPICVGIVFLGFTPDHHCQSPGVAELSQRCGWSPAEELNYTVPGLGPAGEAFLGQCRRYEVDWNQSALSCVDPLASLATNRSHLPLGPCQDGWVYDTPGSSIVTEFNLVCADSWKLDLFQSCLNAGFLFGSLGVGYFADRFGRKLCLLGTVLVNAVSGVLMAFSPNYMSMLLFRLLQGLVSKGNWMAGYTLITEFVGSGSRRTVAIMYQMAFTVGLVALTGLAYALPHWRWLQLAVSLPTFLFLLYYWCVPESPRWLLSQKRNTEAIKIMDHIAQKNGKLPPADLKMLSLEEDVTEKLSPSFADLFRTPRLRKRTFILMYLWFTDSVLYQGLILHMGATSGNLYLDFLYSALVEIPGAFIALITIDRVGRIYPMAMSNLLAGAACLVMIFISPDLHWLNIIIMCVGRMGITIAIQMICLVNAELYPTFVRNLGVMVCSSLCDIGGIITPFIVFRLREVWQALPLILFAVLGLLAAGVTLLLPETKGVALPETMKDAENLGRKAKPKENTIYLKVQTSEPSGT
Briefly: cell-based.

The conditions of data set [5]: cited from earlier work.
The conditions of data set [6]: cited from earlier work; for increase in the plasma exposure (AUC) of metformin in clinical DDIs: ref Somogyi et al. 1987, Wang et al. 2008, Grün et al. 2013, Müller et al. 2015, Kusuhara et al. 2011.
In data set [7] the target is T1, multidrug and toxin extrusion protein (MATE) 1 (SLC47A1). Nature of the data set: In vitro SLC transporter inhibition: MATE1-mediated [14C]-metformin uptake. In kind it is cell-based.
For data set [8] the target is unchanged. Conditions: MATE1-mediated metformin uptake, 1.5 min, 37°C; ±SE from fitting.
The test system of another data set is Oct1/2. Also on record: method as in Higgins et al. 2012. Conditions: oral administration; ref Higgins et al. 2012; cited from earlier work.
Data set [9] is described as follows: Metformin apparent permeability across polarised Caco-2 cell monolayers with and without inhibitors. In kind it is in vitro ADME. Conditions: human, Caco-2, pH 6.5. As for the experimental part: as §1
(In general: Passage across Caco-2 layers is used to estimate intestinal permeability.)

A further data set concerns the target MATE2‐K (SLC47A2) (Homo sapiens, UniProt Q86VL8). The settings on record: MATE2-K-mediated metformin uptake, 1.5 min, 37°C; ±SE from fitting.
The conditions of data set [10]: oral metformin human mass balance, average; ref Pentikäinen et al. 1979; Tucker et al. 1981; Kusuhara et al. 2011; cited from earlier work.
The nature of data set [11]: Metformin human mass balance and renal clearance. In kind it is in vivo.
Another data set concerns Mate1. The arrangement: method as in Tsuda et al. 2009a. Conditions: intravenous administration; ref Tsuda et al. 2009a; cited from earlier work.
Setting [12] is: first-listed (or only) clinical study.

Like-named read-outs stand apart in the source and are kept apart here. Marks after values point to notes of the source that are not given here.

MATE2‐K (SLC47A2), sequence (Q86VL8 1-566 isoform Q86VL8-3): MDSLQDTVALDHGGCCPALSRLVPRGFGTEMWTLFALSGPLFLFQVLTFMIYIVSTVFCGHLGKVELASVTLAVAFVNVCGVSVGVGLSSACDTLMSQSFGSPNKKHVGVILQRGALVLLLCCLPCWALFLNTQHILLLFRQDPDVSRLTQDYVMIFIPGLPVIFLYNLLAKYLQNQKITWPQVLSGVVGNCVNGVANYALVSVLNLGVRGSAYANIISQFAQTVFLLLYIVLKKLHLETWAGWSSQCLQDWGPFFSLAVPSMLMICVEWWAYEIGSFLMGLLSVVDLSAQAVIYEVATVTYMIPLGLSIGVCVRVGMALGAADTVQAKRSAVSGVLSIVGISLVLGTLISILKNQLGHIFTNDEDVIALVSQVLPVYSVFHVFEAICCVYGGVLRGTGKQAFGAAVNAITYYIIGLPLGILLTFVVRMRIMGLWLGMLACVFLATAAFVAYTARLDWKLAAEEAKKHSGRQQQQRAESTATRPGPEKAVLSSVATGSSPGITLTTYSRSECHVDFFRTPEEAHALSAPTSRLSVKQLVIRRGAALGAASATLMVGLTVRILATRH

A word on the IC50: it is the concentration that gives 50% inhibition. Lower therefore signals inhibition by little substance. Turning to `CN/C(=N/CCSCc1nc[nH]c1C)NC#N` [Cimetidine, cimetidine], the “[C max free]” value was determined as 7.68 µM in data set [1] (setting [12]) and 4.08 µM in [1] (second-listed clinical study). Further, the Cmax was 9.6 µM in data set [2] (cimetidine 400 mg, first value, study with metformin 250 mg, ref Somogyi et al. (1987)) and 5.1 µM in data set [2] (cimetidine 400 mg, second value, study with metformin 500 mg, ref Wang et al. (2008)). Moreover, the “mode of inhibition of MATE1” value in data set [3] is listed as “competitive inhibitors”. The “effect on enhancing metformin absorptive permeability across Caco‐2 cells” value in the data set on Caco‐2 cell monolayers is “absence of an effect”. In data set [4], this molecule came in with a half-maximal inhibitory concentration (IC50) of 275 ± 32.2 µM. For the same molecule, the “f u (fraction unbound)” value in data set [5] (ref Somogyi and Gugler (1983)) was 0.80 ^a. For the same molecule, the “increase in the plasma exposure (AUC) of metformin in clinical DDIs” value (shortened to “increase in the plasma exposure (AUC)”) in data set [6] is listed as less than 2 fold.

Take `CCc1nc(N)nc(N)c1-c1ccc(Cl)cc1` [Pyrimethamine, pyrimethamine]: the “MATE1 K i” value in [7] (equates to IC50 (probe ≪≪ Km, assuming competitive inhibition)) worked out at 0.131 µM. Besides, the “IC50 (≅K i) values MATE1” value in [7] (probe [14C]-metformin 100 μmol/L, 1.5 min, mean ± SD of three experiments) stood at 0.131 ± 0.0401 µM. Further, the “[C max free]” value in [1] (setting [12]) came to 0.298 µM. For the same molecule, in [2] (pyrimethamine 50 mg, study with metformin 250 mg, ref Kusuhara et al. (2011)), the Cmax is 2.29 µM. Besides, the “mode of inhibition of MATE1” value in data set [3] is recorded as “competitive inhibitors”. Besides, in the data set on Caco‐2 cell monolayers, the “effect on enhancing metformin absorptive permeability across Caco‐2 cells” value is “absence of an effect”. This molecule returned an IC50 in data set [4] of 4.46 ± 0.77 µM. The “increase in the plasma exposure (AUC)” value in data set [6] is on record as less than 2 fold.

Take `COc1cc(Cc2cnc(N)nc2N)cc(OC)c1OC` [Trimethoprim, trimethoprim]: the “[C max free]” value in data set [1] (setting [12]) came to 7.84 µM; in [1] (second-listed clinical study), 4.26 µM. The “effect on enhancing metformin absorptive permeability across Caco‐2 cells” value in the data set with Caco‐2 cell monolayers is on record as “absence of an effect”. In addition, in data set [5] (ref Bactrim and Daraprim drug labels (Drugs@FDA database)), the “f u (fraction unbound)” value is listed as 0.56. Moreover, in data set [6], the “increase in the plasma exposure (AUC)” value was less than 2 fold.

A word on the Papp A→B: it is the apparent permeability from the apical to the basolateral side of a cell layer. By Papp B→A is commonly meant how fast a substance crosses the layer from the basolateral side. Take `CN(C)C(=N)N=C(N)N` [metformin, Metformin]: the K m in [8] was 4.565 ± 0.903 mM; at MATE2‐K (SLC47A2) it was 2.986 ± 0.817 mM. Also, the V max in data set [8] was 141000 ± 12283 pmol/min/mg protein; at MATE2‐K (SLC47A2), 32147 ± 3401 pmol/min/mg protein. Further, the “increase in metformin AUC in Oct1/2(−/−) mice” value in the data set with Oct1/2 was 2.9 fold. For the same molecule, the Papp A→B at 90 min in [9] (read-out: Papp A‐B (apical to basolateral)) is approximately 0.5 ×10⁻⁶ cm/s. Further, the apparent permeability from basolateral to apical (Papp B→A) at 90 min in [9] (read-out: Papp B‐A (basolateral to apical)) is approximately 0.5 ×10⁻⁶ cm/s. Further, the “share of the dose eliminated in urine” value in [10] was 52%. Moreover, the “fraction excreted value, ƒe, renal active transport” value in [11] (derived from intravenous administration of metformin) was found to be 0.66; in [11] (derived from oral administration of metformin), 0.39. In addition, the “increase in metformin AUC in Mate1(−/−) null mice compared with wildtype” value in the data set with Mate1 is 4.2 fold.

With `CNC(=C[N+](=O)[O-])NCCSCc1csc(CN(C)C)n1` [nizatidine], the “effect on metformin AUC in clinical interaction study” value in data set [6] (ref Morrissey et al. 2016) is on record as “did not increase metformin AUC”.

(Values after paper PMC5625161 (Pharmacology Research & Perspectives, 2017).)
